Laboratory results reported in PubChem BioAssay AID248 (DTP/NCI, 2004).
“And” between values parts separate entries of the source, which are not always exact repeats. Equal entries are not always repeated. Inconclusive results and toxic doses are left out. Rule as the data show it: active = T/C of 150% or more; inactive = T/C below 125%.

Test system: L1210 leukemia ip in BDF1 mice, survival T/C
Assay: NCI In Vivo Anticancer Drug Screen. Data for tumor model L1210 Leukemia (intraperitoneal) in B6D2F1 (BDF1) mice
Conditions: endpoint: mean survival time, higher = longer survival
In short: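 In this screen, tumor-bearing mice given compound are compared to those given vehicle, and their survival values are reported as a treated-to-control quotient.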

[1] = dose: 25.0 mg/kg/injection, schedule: Q01DX001 (ip), vehicle: saline
[2] = dose: 50.0 mg/kg/injection, schedule: Q01DX001 (ip), vehicle: saline
[3] = dose: 100.0 mg/kg/injection, schedule: Q01DX001 (ip), vehicle: saline
[4] = dose: 200.0 mg/kg/injection, schedule: Q01DX001 (ip), vehicle: saline
[5] = dose: 100.0 mg/kg/injection, schedule: Q01DX009 (ip), vehicle: Klucel (hydroxypropylcellulose) (HPC)
[6] = dose: 100.0 mg/kg/injection, schedule: Q04DX003 (ip), vehicle: Klucel (hydroxypropylcellulose) (HPC)
[7] = dose: 200.0 mg/kg/injection, schedule: Q01DX009 (ip), vehicle: Klucel (hydroxypropylcellulose) (HPC)
[8] = dose: 200.0 mg/kg/injection, schedule: Q04DX003 (ip), vehicle: Klucel (hydroxypropylcellulose) (HPC)
[9] = dose: 400.0 mg/kg/injection, schedule: Q04DX003 (ip), vehicle: Klucel (hydroxypropylcellulose) (HPC)
[10] = dose: 400.0 mg/kg/injection, schedule: Q01DX001 (ip), vehicle: saline
[11] = dose: 100.0 mg/kg/injection, schedule: Q01DX009 (ip), vehicle: saline
[12] = dose: 100.0 mg/kg/injection, schedule: Q04DX003 (ip), vehicle: saline
[13] = dose: 25.0 mg/kg/injection, schedule: Q04DX003 (ip), vehicle: saline with Tween-80
[14] = dose: 100.0 mg/kg/injection, schedule: Q04DX003 (ip), vehicle: saline with Tween-80
[15] = dose: 200.0 mg/kg/injection, schedule: Q01DX009 (ip), vehicle: saline
[16] = dose: 200.0 mg/kg/injection, schedule: Q04DX003 (ip), vehicle: saline
[17] = dose: 400.0 mg/kg/injection, schedule: Q04DX003 (ip), vehicle: saline
[18] = dose: 100.0 mg/kg/injection, schedule: Q01DX001 (ip), vehicle: saline with Tween-80
[19] = dose: 400.0 mg/kg/injection, schedule: Q01DX009 (ip), vehicle: Klucel (hydroxypropylcellulose) (HPC)
[20] = dose: 100.0 mg/kg/injection, schedule: Q01DX001 (ip), vehicle: carboxymethylcellulose (CMC)
[21] = dose: 200.0 mg/kg/injection, schedule: Q01DX001 (ip), vehicle: carboxymethylcellulose (CMC)
[22] = dose: 400.0 mg/kg/injection, schedule: Q01DX001 (ip), vehicle: carboxymethylcellulose (CMC)
[23] = dose: 10.0 mg/kg/injection, schedule: Q01DX001 (ip), vehicle: saline
[24] = dose: 20.0 mg/kg/injection, schedule: Q01DX001 (ip), vehicle: saline

Measured: T/C

C[N+]1=C(/C=C/c2ccc(O)c3ncccc23)C(C)(C)c2ccccc21
inactive: dose: 7.5 mg/kg/injection, schedule: Q01DX009 (ip), vehicle: saline 93 % of control | dose: 12.5 mg/kg/injection, schedule: Q01DX001 (ip), vehicle: saline 106 % of control | dose: 15.0 mg/kg/injection, schedule: Q01DX009 (ip), vehicle: saline 109 % of control | [1] 101 % of control | dose: 30.0 mg/kg/injection, schedule: Q01DX009 (ip), vehicle: saline 104 % of control | [2] 113 % of control | dose: 60.0 mg/kg/injection, schedule: Q01DX009 (ip), vehicle: saline 101 % of control | [3] 92 % of control and 117 % of control | [4] 112 % of control

O=[N+]([O-])c1cccc(C=Nc2cccc(C(F)(F)F)c2)c1
inactive: [5] 109 % of control | [6] 110 % of control | [7] 98 % of control | [8] 110 % of control | [9] 101 % of control

CN(C)c1ncccc1O
inactive: [3] 95 % of control | [4] 101 % of control | [10] 106 % of control

Clc1ccccc1OCCNC1CC1
inactive: dose: 6.25 mg/kg/injection, schedule: Q01DX009 (ip), vehicle: saline 101 % of control | dose: 12.5 mg/kg/injection, schedule: Q01DX009 (ip), vehicle: saline 105 % of control | dose: 25.0 mg/kg/injection, schedule: Q01DX009 (ip), vehicle: saline 97 % of control | dose: 25.0 mg/kg/injection, schedule: Q04DX003 (ip), vehicle: saline 102 % of control | dose: 50.0 mg/kg/injection, schedule: Q01DX009 (ip), vehicle: saline 103 % of control | dose: 50.0 mg/kg/injection, schedule: Q04DX003 (ip), vehicle: saline 100 % of control | [11] 105 % of control | [12] 102 % of control

Clc1nc2nc[nH]c2nc1Cl
inactive: [13] 98 % of control | dose: 50.0 mg/kg/injection, schedule: Q04DX003 (ip), vehicle: saline with Tween-80 104 % of control | [6] 92 % of control | [14] 86 % of control

Cc1ccc2cc3c(ccc4ccccc43)c3c2c1CC3
inactive: [14] 119 % of control | dose: 200.0 mg/kg/injection, schedule: Q04DX003 (ip), vehicle: saline with Tween-80 120 % of control | dose: 400.0 mg/kg/injection, schedule: Q04DX003 (ip), vehicle: saline with Tween-80 120 % of control

CCOC(=O)c1ccc(OC(=O)Nc2ccc(Cl)cc2OC)cc1
inactive: [11] 87 % of control | [15] 100 % of control

O=C(CCl)NCCO
inactive: [12] 108 % of control | [16] 90 % of control | [17] 104 % of control

COc1cc2nc(/C=C/c3nc4cc(OC)c(OC)cc4[nH]3)[nH]c2cc1OC
inactive: dose: 25.0 mg/kg/injection, schedule: Q01DX001 (ip), vehicle: saline with Tween-80 100 % of control | dose: 50.0 mg/kg/injection, schedule: Q01DX001 (ip), vehicle: saline with Tween-80 100 % of control | [18] 94 % of control

O=C(Nc1ccc([N+](=O)[O-])cc1)N1CCCCC1
inactive: [3] 95 % of control | [4] 95 % of control | [10] 97 % of control

CCCCCCCCCCCCCCC(=O)c1ccccc1
inactive: [5] 100 % of control | [6] 105 % of control | [7] 102 % of control | [8] 102 % of control | [19] 95 % of control | [9] 104 % of control

COc1ccc([N+](=O)[O-])cc1NC(=O)Nc1ccc(I)cc1
inactive: [5] 103 % of control | [7] 95 % of control | [19] 103 % of control

O=C(O)/C(Cc1cn[nH]n1)=N\O
inactive: dose: 100.0 mg/kg/injection, schedule: Q01DX001 (ip), vehicle: other 95 % of control | dose: 200.0 mg/kg/injection, schedule: Q01DX001 (ip), vehicle: other 101 % of control | dose: 400.0 mg/kg/injection, schedule: Q01DX001 (ip), vehicle: other 101 % of control

c1cc(Nc2ccncc2)ccn1
inactive: dose: 6.25 mg/kg/injection, schedule: Q01DX009 (ip), vehicle: saline with Tween-80 97 % of control | dose: 12.5 mg/kg/injection, schedule: Q01DX009 (ip), vehicle: saline with Tween-80 95 % of control | dose: 25.0 mg/kg/injection, schedule: Q01DX009 (ip), vehicle: saline with Tween-80 99 % of control | [13] 97 % of control

CC(=O)Nc1c(C)cccc1[N+](=O)[O-]
inactive: [18] 94 % of control

COc1nn(O)cc(C)c1=N
inactive: dose: 25.0 mg/kg/injection, schedule: Q04DX002 (ip), vehicle: saline with Tween-80 92 % of control | dose: 100.0 mg/kg/injection, schedule: Q04DX002 (ip), vehicle: saline with Tween-80 96 % of control

CCOC1=C(Br)C=CN(S(=O)(=O)c2ccc(C)cc2)c2ccc(OC)cc21
inactive: [5] 98 % of control | [6] 95 % of control | [7] 101 % of control | [8] 101 % of control | [19] 100 % of control | [9] 91 % of control

CCCC(CCN(C)C)(CNC(=O)CN(CC)CC)c1cccc2ccccc12 (centres undefined)
inactive: dose: 50.0 mg/kg/injection, schedule: Q04DX002 (ip), vehicle: saline 105 % of control | [11] 99 % of control | dose: 100.0 mg/kg/injection, schedule: Q04DX002 (ip), vehicle: saline 100 % of control | dose: 200.0 mg/kg/injection, schedule: Q04DX002 (ip), vehicle: saline 100 % of control

Cc1cc(Sc2ccccc2)c2c(C)ccc(C(C)C)cc1-2
inactive: [20] 95 % of control | [21] 97 % of control | [22] 95 % of control

O=S(=O)(O)c1cccc2cccc(Cl)c12
inactive: dose: 100.0 mg/kg/injection, schedule: Q01DX009 (ip), vehicle: saline with Tween-80 99 % of control | [11] 95 % of control | [12] 109 % of control | dose: 200.0 mg/kg/injection, schedule: Q01DX009 (ip), vehicle: saline with Tween-80 94 % of control | [15] 97 % of control | [16] 105 % of control | dose: 400.0 mg/kg/injection, schedule: Q01DX009 (ip), vehicle: saline with Tween-80 96 % of control | dose: 400.0 mg/kg/injection, schedule: Q01DX009 (ip), vehicle: saline 103 % of control | [17] 115 % of control

[O]=[Sb]([OH])([c]1ccccc1)[c]1ccccc1
inactive: [23] 87 % of control | [24] 91 % of control

CSc1nc(N)c2c(=O)c(C(N)=O)cn(C3OC(CO)C(O)C3O)c2n1 (centres undefined)
inactive: dose: 100.0 mg/kg/injection, schedule: Q01DX005 (ip), vehicle: saline 95 % of control | dose: 200.0 mg/kg/injection, schedule: Q01DX005 (ip), vehicle: saline 93 % of control

c1ccc([As](C[As](c2ccccc2)c2ccccc2)c2ccccc2)cc1
inactive: dose: 50.0 mg/kg/injection, schedule: Q04DX003 (ip), vehicle: Klucel (hydroxypropylcellulose) (HPC) 91 % of control | [6] 97 % of control | [8] 96 % of control | [9] 92 % of control

CSCc1ccc(N)cc1
inactive: [5] 105 % of control | [6] 103 % of control | [7] 112 % of control | [8] 92 % of control | [19] 101 % of control | [9] 98 % of control

O=C(Nc1cc(Cl)cc(Cl)c1)C(Cl)Cl
inactive: dose: 50.0 mg/kg/injection, schedule: Q01DX001 (ip), vehicle: carboxymethylcellulose (CMC) 117 % of control | [20] 109 % of control | [21] 105 % of control | [22] 109 % of control

CCN=C(N)N=C(N)N
inactive: [1] 96 % of control | [2] 106 % of control | [3] 102 % of control

O=S(=O)(n1ccnc1)C(F)(F)F
inactive: dose: 5.0 mg/kg/injection, schedule: Q01DX001 (ip), vehicle: saline 102 % of control | [23] 98 % of control | [24] 102 % of control | dose: 40.0 mg/kg/injection, schedule: Q01DX001 (ip), vehicle: saline 102 % of control
